Test results from US10294202B2, “Pyrrolidinones as herbicides” (FMC Corporation, priority 2013, dated 2019).

Key:
barnyardgrass [1] = experiment: Test A pre-/postemergence herbicide test; type: in vivo, Echinochloa crus-galli
Procedure, shortened: (§1)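 Greenhouse pot test with pre- and postemergence application of surfactant-containing solvent formulations. Postemergence plants were 2–10 cm, one- to two-leaf stage. Response scored visually after ~10 days, 0 (no effect) to 100 (complete control).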

kochia = experiment: Test A pre-/postemergence herbicide test; type: in vivo, Kochia scoparia
Procedure, shortened: as §1

ragweed = experiment: Test A pre-/postemergence herbicide test; type: in vivo, Ambrosia elatior
Procedure, shortened: as §1

ryegrass, Italian = experiment: Test A pre-/postemergence herbicide test; type: in vivo, Lolium multiflorum
Procedure, shortened: as §1

giant foxtail = experiment: Test A pre-/postemergence herbicide test; type: in vivo, Setaria faberii
Procedure, shortened: as §1

pigweed = experiment: Test A pre-/postemergence herbicide test; type: in vivo, Amaranthus retroflexus
Procedure, shortened: as §1

wheat = experiment: Test A pre-/postemergence herbicide test; type: in vivo, Triticum aestivum; conditions: Postemergence
Procedure, shortened: as §1

corn = experiment: Test A pre-/postemergence herbicide test; type: in vivo, Zea mays; conditions: Postemergence
Procedure, shortened: as §1

blackgrass = experiment: Test A postemergence herbicide test; type: in vivo, Alopecurus myosuroides
Procedure, shortened: (§2)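 Young potted plants in a loam–sand mix, one- to two-leaf stage and 2–10 cm tall, receive the test chemical postemergence and stay in a greenhouse for approximately 10 days. Injury is then judged by eye against untreated plants, scored 0 (none) to 100 (complete control).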

galium = experiment: Test A postemergence herbicide test; type: in vivo, Galium aparine
Procedure, shortened: as §2

rice = experiment: Test B flooded paddy test; type: in vivo, Oryza sativa; conditions: 500 g ai/ha, Flood; scale of 0 to 100 where 0 is no effect and 100 is complete control
Procedure, shortened: (§3)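 Scoring: visual, compared with untreated controls, 0 = no effect through 100 = complete control, taken 13 to 15 days after treatment in the greenhouse. Compounds had been added to paddy water over soil flooded 3 cm deep at the plants' 2-leaf stage.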

sedge, umbrella = experiment: Test B flooded paddy test; type: in vivo, Cyperus difformis; conditions: 500 g ai/ha, Flood; scale of 0 to 100 where 0 is no effect and 100 is complete control
Procedure, shortened: as §3

ducksalad = experiment: Test B flooded paddy test; type: in vivo, Heteranthera limosa; conditions: 500 g ai/ha, Flood; scale of 0 to 100 where 0 is no effect and 100 is complete control
Procedure, shortened: as §3

barnyardgrass [2] = experiment: Test B flooded paddy test; type: in vivo, Echinochloa crus-galli; conditions: 500 g ai/ha, Flood; scale of 0 to 100 where 0 is no effect and 100 is complete control
Procedure, shortened: as §3

[3] = Postemergence, 125 g ai/ha, 0 to 100 scale, 0 is no effect, 100 is complete control
[4] = Postemergence, 500 g ai/ha, 0 to 100 scale (0 no effect, 100 complete control)
[5] = Preemergence, 125 g ai/ha, 0 to 100 scale where 0 is no effect and 100 is complete control
[6] = preemergence, 500 g ai/ha, 0 to 100 scale, 0 is no effect and 100 is complete control
[7] = Postemergence, 125 g ai/ha, visual rating on 0 to 100 scale (0 no effect, 100 complete control), approx. 10 days
[8] = 125 g ai/ha, visual rating on 0 to 100 scale (0 no effect, 100 complete control), approx. 10 days
[9] = 500 g ai/ha, 0 to 100 scale (0 no effect, 100 complete control)
[10] = 125 g ai/ha, 0 to 100 scale, 0 is no effect, 100 is complete control

## CC(C)N1CC(c2ccc(F)cc2)C(C(=O)Nc2cccc(F)c2F)C1=O (stereo not drawn) [Compound 276]
Barnyardgrass [1]; [3]
  Plant response rating, Barnyardgrass: 0
Barnyardgrass [1]; [4]
  Plant response rating, Barnyardgrass: 0
Barnyardgrass [1]; [5]
  Plant response rating, Barnyardgrass: 0
Barnyardgrass [1]; [6]
  Plant response rating, Barnyardgrass: 0
kochia; [3]
  Plant response rating, Kochia: 0
kochia; [4]
  Plant response rating, Kochia: 0
kochia; [5]
  Plant response rating, Kochia: 0
kochia; [6]
  Plant response rating, Kochia: 0
ragweed; [7]
  Plant response rating, Ragweed: 0
ragweed; [4]
  Plant response rating, Ragweed: 0
ragweed; [5]
  Plant response rating, Ragweed: 0
ragweed; [6]
  Plant response rating, Ragweed: 0
ryegrass, Italian; [7]
  Plant response rating, Ryegrass, Italian: 0
ryegrass, Italian; [4]
  Plant response rating, Ryegrass, Italian: 0
ryegrass, Italian; [5]
  Plant response rating, Ryegrass, Italian: 0
ryegrass, Italian; [6]
  Plant response rating, Ryegrass, Italian: 0
Giant foxtail; [3]
  Plant response rating, Foxtail, Giant: 0
Giant foxtail; [4]
  Plant response rating, Foxtail, Giant: 0
Giant foxtail; [5]
  Plant response rating, Foxtail, Giant: 0
Giant foxtail; [6]
  Plant response rating, Foxtail, Giant: 0
pigweed; [7]
  Plant response rating, Pigweed: 0
pigweed; [4]
  Plant response rating, Pigweed: 0
pigweed; [5]
  Plant response rating, Pigweed: 0
pigweed; [6]
  Plant response rating, Pigweed: 0
wheat; [8]
  Plant response rating, Wheat: 0
wheat; [9]
  Plant response rating, Wheat: 0
corn; [10]
  Plant response rating, Corn: 0
corn; [9]
  Plant response rating, Corn: 0
blackgrass; [10]
  Plant response rating, Blackgrass: 0
blackgrass; [9]
  Plant response rating, Blackgrass: 0
galium; [10]
  Plant response rating, Galium: 0
galium; [9]
  Plant response rating, Galium: 0
rice
  Plant response rating, Rice: 0
sedge, umbrella
  Plant response rating, Sedge, Umbrella: 0
ducksalad
  Plant response rating, Ducksalad: 30
Barnyardgrass [2]
  Plant response rating, Barnyardgrass: 0

## CSc1cccc(C2CNC(=O)C2C(=O)Nc2ccccc2Cl)c1 (stereo not drawn) [Compound 291]
Barnyardgrass [1]; [7]
  Plant response rating, Barnyardgrass: 40
Barnyardgrass [1]; [4]
  Plant response rating, Barnyardgrass: 60
Barnyardgrass [1]; [5]
  Plant response rating, Barnyardgrass: 20
Barnyardgrass [1]; [6]
  Plant response rating, Barnyardgrass: 60
kochia; [7]
  Plant response rating, Kochia: 0
kochia; [4]
  Plant response rating, Kochia: 0
kochia; [5]
  Plant response rating, Kochia: 20
kochia; [6]
  Plant response rating, Kochia: 20
ragweed; [7]
  Plant response rating, Ragweed: 0
ragweed; [4]
  Plant response rating, Ragweed: 0
ragweed; [5]
  Plant response rating, Ragweed: 0
ragweed; [6]
  Plant response rating, Ragweed: 0
ryegrass, Italian; [7]
  Plant response rating, Ryegrass, Italian: 0
ryegrass, Italian; [4]
  Plant response rating, Ryegrass, Italian: 0
ryegrass, Italian; [5]
  Plant response rating, Ryegrass, Italian: 0
ryegrass, Italian; Preemergence, 500 g ai/ha, visual rating on 0 to 100 scale (0 no effect, 100 complete control)
  Ryegrass, Italian plant response rating: 30
Giant foxtail; [7]
  Plant response rating, Foxtail, Giant: 20
Giant foxtail; [4]
  Plant response rating, Foxtail, Giant: 50
Giant foxtail; [5]
  Plant response rating, Foxtail, Giant: 20
Giant foxtail; [6]
  Plant response rating, Foxtail, Giant: 80
pigweed; [7]
  Plant response rating, Pigweed: 0
pigweed; [4]
  Plant response rating, Pigweed: 0
pigweed; [5]
  Plant response rating, Pigweed: 0
pigweed; [6]
  Plant response rating, Pigweed: 0
wheat; [8]
  Plant response rating, Wheat: 0
wheat; [9]
  Plant response rating, Wheat: 0
corn; [8]
  Plant response rating, Corn: 0
corn; [9]
  Plant response rating, Corn: 0
blackgrass; [8]
  Plant response rating, Blackgrass: 0
blackgrass; [9]
  Plant response rating, Blackgrass: 0
galium; [8]
  Plant response rating, Galium: 20
galium; [9]
  Plant response rating, Galium: 0
rice
  Plant response rating, Rice: 20
sedge, umbrella
  Plant response rating, Sedge, Umbrella: 0
ducksalad
  Plant response rating, Ducksalad: 0
Barnyardgrass [2]
  Plant response rating, Barnyardgrass: 0
